How the values were obtained:
[1] = tested on: H661; experiment: Therapeutic effect of cancer cell line, IC50; format: cell-based; details: Homo sapiens, NCI-H661; H661, NAPRT expression negative
[2] = tested on: H322; experiment: Therapeutic effect of cancer cell line, IC50; format: cell-based; details: NCI-H322; H322, NAPRT expression negative
[3] = tested on: H1115; experiment: Therapeutic effect of cancer cell line, IC50; format: cell-based; details: H1115, NAPRT expression negative
[4] = Microsome stability evaluation; format: in vitro ADME, mouse; details: after 30 minutes, 1 μM compound, 0.3 mg/ml microsomal protein, 1 mM NADPH
Description: (§1) Metabolic stability was assessed using human liver microsomes and mouse liver microsomes. Specifically, pooled male mouse liver microsomes (in-house preparation per SOP), pooled human liver microsomes (XENOTECH; […] The reaction was stopped by addition of acetonitrile ([…]) containing the same volume of internal standard. The precipitated proteins were removed by centrifugation and the supernatant was analyzed by LC/MS-MS method. […] Residual % parent compound=(peak area at time x/peak area at TO)×100.

[5] = Microsome stability evaluation; format: in vitro ADME, human; details: after 30 minutes, 1 μM compound, 0.3 mg/ml microsomal protein, 1 mM NADPH
Description: as §1

[6] = biological target: hERG channel (Homo sapiens, UniProt Q12809); experiment: hERG screening by fluorescence polarization with red fluorescent hERG channel ligand tracer; format: binding; details: probe high affinity red fluorescent hERG channel ligand tracer, mean±standard deviation, read-out: % inhibition capacity
[7] = biological target: hERG K+ channel (Homo sapiens, UniProt Q12809); experiment: hERG K+ channel activity evaluation, patch clamp
[8] = tested on: H1993; experiment: Therapeutic effect of cancer cell line, IC50; format: cell-based; details: Homo sapiens, NCI-H1993; H1993, NAPRT expression positive
[9] = tested on: HBEC30; experiment: Therapeutic effect of cancer cell line, IC50; format: cell-based; details: HBEC30, NAPRT expression positive
[10] = tested on: H2122; experiment: Therapeutic effect of cancer cell line, IC50; format: cell-based; details: Homo sapiens, NCI-H2122; H2122, NAPRT expression positive
[11] = tested on: H1975; experiment: Therapeutic effect of cancer cell line, IC50; format: cell-based; details: Homo sapiens, NCI-H1975; H1975, NAPRT expression positive
[12] = tested on: H2030; experiment: Therapeutic effect of cancer cell line, IC50; format: cell-based; details: Homo sapiens, NCI-H2030; H2030, NAPRT expression positive
[13] = tested on: H1299; experiment: Therapeutic effect of cancer cell line, IC50; format: cell-based; details: Homo sapiens, NCI-H1299; H1299, NAPRT expression positive
[14] = tested on: liver cell (THLE-2); experiment: Toxicity assessment in normal cell line, cell viability; format: cell-based; details: THLE-2, very high concentrations of 50 μM
[15] = tested on: liver cell (THLE-3); experiment: Toxicity evaluation in normal cell line, cell viability; format: cell-based; details: THLE-3, very high concentrations of 50 μM
[16] = tested on: H322 cell line; experiment: Toxic mechanism in cancer cell lines: intracellular NAD, ATP and total protein; format: cell-based; details: H322, 2.5 μM
Description: To investigate the direct effect of the compound according to the present invention on the catalytic activity of NamPT enzyme, after treating H322 cell line with 2.5 μM of the compound of the Synthesis Example 4, the intracellular NAD, ATP and total protein was measured, with the results depicted in FIG. 20.

Sequence of hERG channel (Q12809 whole entry): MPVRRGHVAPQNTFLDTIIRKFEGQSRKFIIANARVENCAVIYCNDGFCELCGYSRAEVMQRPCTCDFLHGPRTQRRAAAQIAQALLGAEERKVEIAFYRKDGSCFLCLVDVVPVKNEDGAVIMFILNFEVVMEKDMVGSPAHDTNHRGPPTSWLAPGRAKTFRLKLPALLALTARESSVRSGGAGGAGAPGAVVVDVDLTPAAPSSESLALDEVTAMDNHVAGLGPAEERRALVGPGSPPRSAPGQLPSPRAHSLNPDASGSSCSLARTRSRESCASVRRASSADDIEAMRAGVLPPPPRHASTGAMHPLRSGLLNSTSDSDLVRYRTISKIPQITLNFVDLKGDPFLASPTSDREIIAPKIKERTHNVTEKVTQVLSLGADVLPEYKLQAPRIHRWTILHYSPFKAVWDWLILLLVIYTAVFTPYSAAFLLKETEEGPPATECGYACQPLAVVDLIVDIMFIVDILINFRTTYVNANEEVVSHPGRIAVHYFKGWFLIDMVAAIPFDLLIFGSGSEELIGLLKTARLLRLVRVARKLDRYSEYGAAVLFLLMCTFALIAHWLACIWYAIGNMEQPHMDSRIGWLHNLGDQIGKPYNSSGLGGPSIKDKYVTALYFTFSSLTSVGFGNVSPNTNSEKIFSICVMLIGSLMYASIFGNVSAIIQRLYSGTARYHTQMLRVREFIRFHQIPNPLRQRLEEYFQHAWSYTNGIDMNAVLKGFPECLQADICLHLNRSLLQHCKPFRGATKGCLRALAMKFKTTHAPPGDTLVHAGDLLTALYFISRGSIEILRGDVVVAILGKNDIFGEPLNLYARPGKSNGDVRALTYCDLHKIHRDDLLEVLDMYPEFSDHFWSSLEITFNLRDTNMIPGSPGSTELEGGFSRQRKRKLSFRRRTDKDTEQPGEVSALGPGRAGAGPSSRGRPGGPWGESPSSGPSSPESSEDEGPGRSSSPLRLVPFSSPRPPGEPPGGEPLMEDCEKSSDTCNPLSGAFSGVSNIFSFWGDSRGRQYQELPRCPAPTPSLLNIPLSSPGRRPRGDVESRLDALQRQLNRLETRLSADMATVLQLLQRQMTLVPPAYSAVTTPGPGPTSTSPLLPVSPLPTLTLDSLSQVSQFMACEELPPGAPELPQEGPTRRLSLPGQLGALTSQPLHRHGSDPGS
Sequence of hERG K+ channel (Q12809 whole entry): as above

| Compound | IC50 [1] [nM] | IC50 [2] [nM] | IC50 [3] [nM] | further results |
| --- | --- | --- | --- | --- |
| O=C(NCc1ccc(-c2nc3ccc([N+](=O)[O-])cc3o2)cc1)c1cccnc1 [A4261] | < 300 | 30 | < 100 |  |
| O=C(NCc1ccc(-c2nc3cc(-c4ccccc4)ccc3o2)cc1)c1cccnc1 [A4262] | 30000 | 30 | < 100 |  |
| CC(C)(C)c1ccc2nc(-c3ccc(CNC(=O)c4cccnc4)cc3)oc2c1 [A4263] | 1000 | < 30 | < 300 |  |
| O=C(NCc1ccc(-c2nc3cc4ccccc4cc3o2)cc1)c1cccnc1 [A4265, N-(4-(naphtho[2,3-d]oxazol-2-yl)benzyl)nicotinamide] | < 30 | 3 | 10 | Mouse(%) parent compound remaining [4]: 78.24 ± 6.49%; Human(%) parent compound remaining [5]: 81.11 ± 4.76%; inhibition at 10 µM [6]: 7.44 ± 3.12%; IC50 [7]: > 100000 nM |
| O=C(NCc1ccc(-c2nc3ccc(Cl)cc3o2)cc1)c1cccnc1 [A4266, N-(4-(6-chlorobenzo[d]oxazol-2-yl)benzyl)nicotinamide] | 100 | 30 | 30 | Mouse(%) parent compound remaining [4]: 89.3 ± 3.12%; Human(%) parent compound remaining [5]: >99%; inhibition at 10 µM [6]: < 1%; IC50 [7]: > 100000 nM |
| Cc1ccc2oc(-c3ccc(CNC(=O)c4cccnc4)cc3)nc2c1 [A4275] | < 300 | 30 | < 300 |  |
| CCc1ccc2nc(-c3ccc(CNC(=O)c4cccnc4)cc3)oc2c1 [A4302] | 100 | 100 | < 300 |  |
| Cc1ccc2nc(-c3ccc(CNC(=O)c4ccccc4)cc3)oc2c1 [A4303] | 10000 | 10000 | 10000 |  |
| COC(=O)c1ccc(NC(=O)c2cccnc2)cc1 [B1380] | 2500 | 6250 |  | IC50 [8]: > 12500 nM; IC50 [9]: > 12500 nM; IC50 [10]: > 12500 nM |
| CC(C)OC(=O)c1ccc(NC(=O)c2cccnc2)cc1 [B1416] |  | < 1560 |  |  |
| CCc1nnc2sc(-c3ccc(CNC(=O)c4cccnc4)cc3)nn12 [B1423] | > 1000 | 600 | 1000 | IC50 [11]: > 100000 nM; IC50 [8]: > 100000 nM; IC50 [9]: > 100000 nM; IC50 [12]: > 100000 nM; IC50 [13]: > 100000 nM; IC50 [10]: > 100000 nM |

Second part, led by results:

| IC50 [1] [nM] | IC50 [2] [nM] | IC50 [3] [nM] | Compound | further results |
| --- | --- | --- | --- | --- |
| > 1000 | < 24 | 3160 | Cc1nnc2sc(-c3ccc(CNC(=O)c4cccnc4)cc3)nn12 [B1468] | IC50 [11]: > 100000 nM; IC50 [8]: > 100000 nM; IC50 [9]: > 100000 nM; IC50 [12]: > 100000 nM; IC50 [13]: > 100000 nM; toxicity [14]: little toxicity; IC50 [10]: > 100000 nM; toxicity [15]: little toxicity |
|  | 60 |  | O=C(NCc1ccc(-c2nc3ccccc3s2)cc1)c1cccnc1 [B1469] |  |
|  | 60 |  | O=C(NCc1ccc(-c2nc3ccccc3o2)cc1)c1cccnc1 [B1470] |  |
| 700 | < 24 | > 1000 | O=C(NCc1ccc(-c2nc3cnccc3o2)cc1)c1cccnc1 [B1471, N-(4-(oxazolo[4,5-c]pyridin-2-yl)benzyl)nicotinamide] | IC50 [11]: > 100000 nM; IC50 [8]: > 100000 nM; IC50 [9]: > 100000 nM; IC50 [12]: > 100000 nM; IC50 [13]: 100000 nM; IC50 [10]: > 100000 nM; amount of ATP [16]: remarkably decreased; amount of NAD [16]: remarkably decreased; total amount of protein compared to the negative control [16]: decrease |
|  | 300 |  | O=C(NCc1ccc(-c2nc3ncccc3o2)cc1)c1cccnc1 [B1472] |  |
|  | 50 |  | COc1ccc2oc(-c3ccc(CNC(=O)c4cccnc4)cc3)nc2c1 [B1474] |  |
| > 1000 | < 24 | > 1000 | O=C(Nc1ccc(C(=O)OC2CCCCC2)cc1)c1cccnc1 [B1477] | IC50 [11]: > 100000 nM; IC50 [8]: < 100000 nM; IC50 [9]: > 100000 nM; IC50 [12]: < 100000 nM; IC50 [13]: < 100000 nM; toxicity [14]: little toxicity; IC50 [10]: 31600 nM; toxicity [15]: little toxicity |
|  | 5000 |  | CC(C)c1ccc2oc(-c3ccc(NC(=O)c4cccnc4)cc3)nc2c1 [B1479] |  |
|  | 50 |  | O=C(Nc1ccc(C(=O)c2cc3ccccc3o2)cc1)c1cccnc1 [B1484] |  |
|  | 30 |  | CCc1nnc2sc(-c3ccc(NC(=O)c4cccnc4)cc3)nn12 [B1485] |  |
|  | 1560 |  | O=C(Nc1ccc(-c2nn3cnnc3s2)cc1)c1cccnc1 [B1523] |  |

— US11795163B2, “Compound for inhibiting nicotinamide phosphoribosyltransferase and composition containing same” (CHECKMATE THERAPEUTICS INC., priority 2016, dated 2023)
